The target of the test is Gag-Pol polyprotein (Human immunodeficiency virus type 1 group M subtype A (isolate U455)(HIV-1), UniProt P24740). The test is described as follows: Integrase Assay: The effect of each compound on HIV integrase activity was assayed using the HIV-1 Integrase Assay Kit version 2.0, catalogue number EZ-1700 obtained from XpressBio Life Science Products. Immediately prior to the start of the assay, both compounds were dissolved in dimethyl sulfoxide (DMSO) and used immediately in the HIV integration assay. The assay was performed according to the instructions listed by the manufacturer (XpressBio Life Science Products, Maryland, USA). In brief, the required streptavidin-coated strip wells were coated with DS oligo and placed overnight at 4° C. The plates were then incubated with integrase and followed by the addition of test articles at the desired concentration. The plates were developed using the supplied HRP antibody and TMB peroxidase substrate as per the manufacturer's instructions. The reactions were stopped with TMB stop solution and immediately read (<10 min) using a VICTOR XXX. The absorbance of each well was read at 450 nm for 0.5 sec.

SMILES strings stand for the structures.

Broadly, the IC50 is the midpoint of a concentration-inhibition curve. The low end stands for inhibition by little substance, the high end for a need for much substance.

Sequence of Gag-Pol polyprotein (P24740 1141-1428 limits assumed): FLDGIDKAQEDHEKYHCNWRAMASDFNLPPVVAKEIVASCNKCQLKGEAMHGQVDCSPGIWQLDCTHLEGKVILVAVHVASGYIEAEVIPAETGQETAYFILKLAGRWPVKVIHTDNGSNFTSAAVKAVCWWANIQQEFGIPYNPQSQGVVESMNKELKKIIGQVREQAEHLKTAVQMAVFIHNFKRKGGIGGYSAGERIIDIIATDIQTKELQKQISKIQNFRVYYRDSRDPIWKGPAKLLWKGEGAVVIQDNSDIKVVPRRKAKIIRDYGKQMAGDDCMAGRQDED

`Cn1nc(-c2nnc(Cc3ccc(F)cc3)o2)/c(=N/O)c2ncccc21` returned an IC50 of 23.9 µM.

The compound `Cn1cnc(-c2nnc(Cc3ccc(F)cc3)o2)c(O)/c1=N/O` had an IC50 of 58.7 µM.
